Assay results reported in patent US20200270309A1, “MALEIMIDE GROUP-MODIFIED ANGIOGENESIS INHIBITOR HM-1 AND USE THEREOF” (NANJING ANJI BIOLOGICAL TECHNOLOGY CO., LTD, priority 2017, published 2020).
Marks after values point to notes of the source that are not given here. Peptide text beside a SMILES is read from it. * marks the point of attachment. X72 = O=C1C=CC(=O)N1c1ccccc1CCCCCCCCCCC(=O)*; X55 = O=C1C=CC(=O)N1c1ccccc1CCCCCCCCC(=O)*; X63 = O=C1C=CC(=O)N1c1ccccc1CCCCCCC(=O)*; X49 = O=C1C=CC(=O)N1c1ccccc1CCCCCC(=O)*

Columns and labels:
[1] = tested on: splenic lymphocytes; experiment: Proliferation of splenic lymphocytes in mice (ConA, MTT); type: cell-based; settings: ConA-stimulated mouse splenic lymphocytes, 48 h
Method: Spleens of mice were taken out under aseptic conditions, washed with blank 1640 culture medium 3 times, ground with a 5 mL syringe core, filtered with a 200-mesh sieve, made into a single cell suspension. The suspension was centrifuged (1000 rpm×5 min), and supernatant was removed. Red blood cells were lysed by Tris-NH4Cl, and placed in ice water bath for 4 min and centrifuged (1000 rpm×5 min). The supernatant was removed, and the cells were washed twice with sterile PBS. Finally, RPMI 1640 culture solution (5 mL) containing 10% calf serum was added to suspend the cells. The cells were counted and the cell concentration was adjusted to 5×10^6 cells/mL, and the cells were cultured in a 96-well culture plate.
Blank control group, concanavalin A (ConA) group and dexamethasone (Dex) group were set in the experiment, and polypeptide X1-X90 groups were set as test groups. After 100 μL of splenic lymphocytes suspension per well was added into each group, 100 μL of blank 1640 culture solution was added into the blank control group, ConA was added into the ConA group, Dex was added into the Dex group, and ConA was added into the test groups on the basis of adding different concentrations of polypeptides X1-X90. The cells were static cultured at 37° C. in a cell incubator for 48 h. After the cultivation was completed, 20 μL of MTT was added to each well, and the cultivation was continued for 4 h. Finally, all the solutions in each well were discarded. 100 μL DMSO was added to each well and shaken, and the OD value at 570 nm was detected with a microplate reader. Five parallel experiments were set in each well.

[2] = tested on: adjuvant arthritis; experiment: Rat adjuvant arthritis (AA) animal model; type: in vivo, SD rats; settings: 4.0 mg/kg; for Clinical score: intravenous in the tail once every five days from day 10, four paws scored 0-4, max 16, mean±SD; for Joint swelling degree / Left and right paw swelling degree: intravenous in the tail once every five days from day 10, mean±SD
[3] = tested on: retinal vascular endothelial nuclei; experiment: Neovascularization in a rat model of premature retinopathy; type: in vivo, rats; settings: for Nuclei count (retinal vascular endothelial nuclei, average per section per eyeball): dose 0.05 μM in the vitreous chamber from day 7 of modeling for one week, counted on day 14, oxygen-induced neonatal rats
Method: Using a fluctuating oxygen-induced animal model, newborn rats born naturally on the same day (within 12 h) were randomly divide into three groups: an oxygen model group, an oxygen treatment group and a normal control group. The oxygen model was further divided into three sub-group model groups, and the sub-group model groups and the treatment group were all placed in a semi-closed oxygen chamber made of organic glass; medical oxygen was introduced into the chamber, and the concentration was adjusted to 80%±2% by an oxygen meter; nitrogen was introduced into the oxygen chamber after 24 h, and the oxygen concentration was adjusted to 10%±2% rapidly and maintained for 24 h. This was repeated to keep the oxygen concentration in the oxygen chamber alternating between 80% and 10% every 24 h, the oxygen concentration was maintained for 7 d, and then the rats were fed in the air. The oxygen concentration was monitored 8 times a day, and the ambient temperature in the chamber was controlled at 23° C.±2° C. Bedding was replaced, feed was added, and water and mother rats were replaced once. The normal control group was placed in the animal room feeding environment. […] The oxygen treatment group was divided into three subgroups. On day 7 of modeling, X1-[…], […]-[…] and […]-X90 were injected in the vitreous chamber respectively, and the oxygen model group and the control group were only given normal saline for one week. On day 14, after the rats were anesthetized by diethyl ether and killed, eyeballs were extracted and fixed in 40 g/L paraformaldehyde solution for 24 h. Gradient dehydration by alcohol was performed, and the eyeballs were processed by xylene to be transparent. After waxing, the eyeballs were sectioned continuously to a thickness of 4μm, and the periphery of the optic disc should be avoided as much as possible. The sections were parallel to the sagittal plane from cornea to the optic disc. Ten sections of each eyeball were randomly taken and stained with hematoxylin eosin, the number of vascular endothelial nuclei that broke through the inner limiting membrane of the retina (only the number of vascular endothelial nuclei closely related to the inner limiting membrane were counted) was counted, and statistics of the average number of cells per section per eyeball was performed. Results: In the control group, there were no vascular endothelial nuclei that broke through the inner limiting membrane of the retina and grew into vitreous body, or the vascular endothelial nuclei were occasionally found in only a few sections. In the model group, there were many vascular endothelial nuclei that broke through the inner limiting membrane of the retina, some appeared alone, and some appeared in clusters. At the same time, on some sections, these vascular endothelial nuclei were also found adjacent to deep retinal vessels, confirming that they originated from the retina rather than the vitreous body or other ocular tissues. In the treatment group, only a few vascular endothelial nuclei that broke through the inner limiting membrane of retina could be seen in the sections.

[4] = tested on: collagen-induced arthritis; experiment: Mouse collagen-induced arthritis (CIA) animal model; type: in vivo; settings: DBA/1 mice CIA model, dose 4.0 mg/kg, subcutaneous from day 30, n=10; for Clinical score: highest score 16
[5] = tested on: human retinal capillary endothelial cells (HRCECs); experiment: MTT proliferation inhibition on HRCECs; type: cell-based; settings: 48 h; for A570 nm-A630 nm: mean±SD
Method: An MTT method was used to detect the inhibitory activity of the angiogenesis inhibitor polypeptide on proliferation of HRCECs. HRCECs were digested and collected with trypsin after being cultured in an incubator at 37° C. with 5% CO2 to a density of 90% or more. The cells were resuspended with a culture solution and counted under a microscope, the cell concentration was adjusted to 3.0×10^4 cells/mL, and the cell suspension was inoculated into a 96-well plate at 100 μL/well, and cultured overnight in an incubator at 37° C. with 5% CO2. After the cells were completely adhered to the wall, cells with the addition of the angiogenesis inhibitor polypeptide were used as administration groups, cells with the addition of Avastin were used as a positive control group, and cells with the addition of culture solution without any drugs were used as a blank control group. The cells were diluted to respective predetermined concentrations with the culture solution. The diluent were added into 96-well plates respectively at 100 μL per well, and the cells were cultured at 37° C. for 48 h in an incubator with 5% CO2. 20 μL of 5 mg/mL MTT was added into each well of the 96-well plate, and the cultivation was continued for 4 h. The culture medium was removed, and 100 μL of DMSO was added to each well for dissolution. The absorbance was measured at a detection wavelength of 570 nm and a reference wavelength of 630 nm using a microplate reader, and the PIR was calculated by the formula as follows:
PIR (%)=1−administration group/negative group
The experiment was repeated independently three times. The results were expressed as mean±SD, and statistical T test was conducted. *P<0.05 indicates significant difference, and **P<0.01 indicates extremely significant difference.

C[C@H](NC(=O)CNC(=O)[C@H](CCCNC(=N)N)NC(=O)CCCCCc1ccccc1N1C(=O)C=CC1=O)C(=O)N[C@@H](CC(=O)O)C(=O)N[C@@H](CCCNC(=N)N)C(=O)N[C@@H](C)C(=O)NCC(=O)NCC(=O)NCC(=O)NCC(=O)N[C@@H](CCCNC(=N)N)C(=O)NCC(=O)N[C@@H](CC(=O)O)C(=O)O [X17] (X49-RGADRAGGGGRGD-OH)
A570 nm/A630 nm ([1]; polypeptide dose 0.05 μM): 0.6219 ± 0.0629
Inhibition rate (%) ([1]; polypeptide dose 0.05 μM): 7.92%
A570 nm/A630 nm ([1]; polypeptide dose 0.1 μM): 0.5484 ± 0.1109
Inhibition rate (%) ([1]; polypeptide dose 0.1 μM): 18.80%
A570 nm/A630 nm ([1]; polypeptide dose 0.2 μM): 0.5025 ± 0.0957
Inhibition rate (%) ([1]; polypeptide dose 0.2 μM): 25.60%
Clinical score [2]: 5.82 ± 1.05
Joint swelling degree [2]: 0.78 ± 0.15 mm
Left and right paw swelling degree [2]: 3.84 ± 0.88 mm
Nuclei count (retinal vascular endothelial nuclei, average per section per eyeball) [3]: 7.012 ± 1.321
retinal vascular endothelial nuclei count ([3]; dose 0.05 μm, vitreous injection): 7.012±1.321
Joint swelling degree (mm) [4]: 0.79 ± 0.12 mm
Left and right paw swelling degree (mm) [4]: 0.78 ± 0.17 mm
Clinical score [4]: 9.13 ± 1.31
Inhibition rate (%) ([5]; dose 0.05 μM): 55.10%*
A570 nm-A630 nm ([5]; dose 0.05 μM): 0.5934 ± 0.03887
Inhibition rate (%) ([5]; dose 0.1 μM): 62.16%**
A570 nm-A630 nm ([5]; dose 0.1 μM): 0.5001 ± 0.02347
Inhibition rate (%) ([5]; dose 0.2 μM): 65.08%*
A570 nm-A630 nm ([5]; dose 0.2 μM): 0.4616 ± 0.02184

C[C@H](NC(=O)CNC(=O)[C@H](CCCNC(=N)N)NC(=O)CCCCCCc1ccccc1N1C(=O)C=CC1=O)C(=O)N[C@@H](CC(=O)O)C(=O)N[C@@H](CCCNC(=N)N)C(=O)N[C@@H](C)C(=O)NCC(=O)NCC(=O)NCC(=O)NCC(=O)N[C@@H](CCCNC(=N)N)C(=O)NCC(=O)N[C@@H](CC(=O)O)C(=O)O [X18] (X63-RGADRAGGGGRGD-OH)
A570 nm/A630 nm ([1]; polypeptide dose 0.05 μM): 0.6041 ± 0.0524
Inhibition rate (%) ([1]; polypeptide dose 0.05 μM): 10.56%
A570 nm/A630 nm ([1]; polypeptide dose 0.1 μM): 0.5571 ± 0.0554
Inhibition rate (%) ([1]; polypeptide dose 0.1 μM): 17.52%
A570 nm/A630 nm ([1]; polypeptide dose 0.2 μM): 0.4402 ± 0.0534
Inhibition rate (%) ([1]; polypeptide dose 0.2 μM): 34.82%
Clinical score [2]: 5.67 ± 1.04
Joint swelling degree [2]: 0.83 ± 0.15 mm
Left and right paw swelling degree [2]: 3.81 ± 0.85 mm
Nuclei count (retinal vascular endothelial nuclei, average per section per eyeball) [3]: 8.002 ± 3.606
Joint swelling degree (mm) [4]: 0.72 ± 0.11 mm
Left and right paw swelling degree (mm) [4]: 0.79 ± 0.12 mm
Clinical score [4]: 8.91 ± 1.29
Inhibition rate (%) ([5]; dose 0.05 μM): 42.60%*
A570 nm-A630 nm ([5]; dose 0.05 μM): 0.7586 ± 0.05265
Inhibition rate (%) ([5]; dose 0.1 μM): 52.30%**
A570 nm-A630 nm ([5]; dose 0.1 μM): 0.6304 ± 0.03508
Inhibition rate (%) ([5]; dose 0.2 μM): 61.78%*
A570 nm-A630 nm ([5]; dose 0.2 μM): 0.5051 ± 0.08266

C[C@H](NC(=O)CNC(=O)[C@H](CCCNC(=N)N)NC(=O)CCCCCCCCc1ccccc1N1C(=O)C=CC1=O)C(=O)N[C@@H](CC(=O)O)C(=O)N[C@@H](CCCNC(=N)N)C(=O)N[C@@H](C)C(=O)NCC(=O)NCC(=O)NCC(=O)NCC(=O)N[C@@H](CCCNC(=N)N)C(=O)NCC(=O)N[C@@H](CC(=O)O)C(=O)O [X20] (X55-RGADRAGGGGRGD-OH)
A570 nm/A630 nm ([1]; polypeptide dose 0.05 μM): 0.5977 ± 0.1129
Inhibition rate (%) ([1]; polypeptide dose 0.05 μM): 11.50%
A570 nm/A630 nm ([1]; polypeptide dose 0.1 μM): 0.5419 ± 0.0423
Inhibition rate (%) ([1]; polypeptide dose 0.1 μM): 19.77%
A570 nm/A630 nm ([1]; polypeptide dose 0.2 μM): 0.4947 ± 0.1213
Inhibition rate (%) ([1]; polypeptide dose 0.2 μM): 26.75%
Clinical score [2]: 5.74 ± 1.11
Joint swelling degree [2]: 0.8 ± 0.17 mm
Left and right paw swelling degree [2]: 3.87 ± 0.95 mm
Nuclei count (retinal vascular endothelial nuclei, average per section per eyeball) [3]: 9.374 ± 3.742
Joint swelling degree (mm) [4]: 0.82 ± 0.17 mm
Left and right paw swelling degree (mm) [4]: 0.74 ± 0.14 mm
Clinical score [4]: 9.07 ± 1.33
Inhibition rate (%) ([5]; dose 0.05 μM): 44.28%*
A570 nm-A630 nm ([5]; dose 0.05 μM): 0.7365 ± 0.05032
Inhibition rate (%) ([5]; dose 0.1 μM): 46.12%**
A570 nm-A630 nm ([5]; dose 0.1 μM): 0.7121 ± 0.0349
Inhibition rate (%) ([5]; dose 0.2 μM): 60.14%*
A570 nm-A630 nm ([5]; dose 0.2 μM): 0.5268 ± 0.01299

C[C@H](NC(=O)CNC(=O)[C@H](CCCNC(=N)N)NC(=O)CCCCCCCCCCc1ccccc1N1C(=O)C=CC1=O)C(=O)N[C@@H](CC(=O)O)C(=O)N[C@@H](CCCNC(=N)N)C(=O)N[C@@H](C)C(=O)NCC(=O)NCC(=O)NCC(=O)NCC(=O)N[C@@H](CCCNC(=N)N)C(=O)NCC(=O)N[C@@H](CC(=O)O)C(=O)O [X22] (X72-RGADRAGGGGRGD-OH)
A570 nm/A630 nm ([1]; polypeptide dose 0.05 μM): 0.5694 ± 0.0561
Inhibition rate (%) ([1]; polypeptide dose 0.05 μM): 15.69%
A570 nm/A630 nm ([1]; polypeptide dose 0.1 μM): 0.4603 ± 0.0873
Inhibition rate (%) ([1]; polypeptide dose 0.1 μM): 31.85%
A570 nm/A630 nm ([1]; polypeptide dose 0.2 μM): 0.4521 ± 0.1194
Inhibition rate (%) ([1]; polypeptide dose 0.2 μM): 33.06%
Clinical score [2]: 5.67 ± 1.12
Joint swelling degree [2]: 0.83 ± 0.14 mm
Left and right paw swelling degree [2]: 3.92 ± 0.18 mm
Nuclei count (retinal vascular endothelial nuclei, average per section per eyeball) [3]: 7.368 ± 1.842
Joint swelling degree (mm) [4]: 0.75 ± 0.14 mm
Left and right paw swelling degree (mm) [4]: 0.83 ± 0.13 mm
Clinical score [4]: 8.67 ± 1.32
Inhibition rate (%) ([5]; dose 0.05 μM): 49.30%*
A570 nm-A630 nm ([5]; dose 0.05 μM): 0.6701 ± 0.07545
Inhibition rate (%) ([5]; dose 0.1 μM): 64.15%**
A570 nm-A630 nm ([5]; dose 0.1 μM): 0.4738 ± 0.00344
Inhibition rate (%) ([5]; dose 0.2 μM): 66.52%*
A570 nm-A630 nm ([5]; dose 0.2 μM): 0.4425 ± 0.04816
